Data taken from publication PMC6594058, “A Research‐inspired biochemistry laboratory module–combining expression, purification, crystallization, structure‐solving, and characterization of a flavodoxin‐like protein” (Biochemistry and Molecular Biology Education, 2019).

Biological target: T1, NrdI (Bacillus cereus, UniProt Q81G57)
T1 construct: untagged by purification route (IEX, SEC); pET-22b(+) XbaI/HindIII; E. coli BL21(DE3)
T1 sequence (Q81G57 1-119): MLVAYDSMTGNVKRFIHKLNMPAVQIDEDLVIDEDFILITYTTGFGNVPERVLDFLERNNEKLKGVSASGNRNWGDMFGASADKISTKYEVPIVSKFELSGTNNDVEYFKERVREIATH
Assay: X-ray crystallography (students re-solve previously collected semiquinone data); UV-vis of co-purified cofactor with dithionite titration
Format: binding
Conditions: crystal in semiquinone state (FMNH•); 1.15 Å; UV-vis in 50 mM Tris-HCl pH 7.5; native bound cofactor

Cc1cc2nc3c(=O)[nH]c(=O)nc-3n(C[C@H](O)[C@H](O)[C@H](O)COP(=O)(O)O)c2cc1C [FMN]
X-ray crystallography (students re-solve previously collected semiquinone data);: Overall structure of the B. cereus NrdI, with the FMN cofactor represented as sticks
